Activity calls are given as the source filed them.
Key:
[1] = tested on: Streptococcus sp. 'group A'; experiment: Streptococcus pyogenes SK(-)GAS viability under kanamycin – luminescence, BacTiterGlo, confirmation, counter-screen for streptokinase expression inhibitor project, dose response (AID 1900); assay type: functional, organism-based
Streptokinase A = molecular target: T1, Streptokinase A (Streptococcus pyogenes serotype M1, UniProt P10520); experiment: viability-normalized secreted streptokinase activity reduction – plasminogen activation absorbance, OD405, dose response (AID 1914); assay type: functional, Streptococcus pyogenes M1 GAS;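 note: secreted streptokinase activity via plasminogen activation per viability signal from cell pellet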
T1 sequence (P10520 whole entry): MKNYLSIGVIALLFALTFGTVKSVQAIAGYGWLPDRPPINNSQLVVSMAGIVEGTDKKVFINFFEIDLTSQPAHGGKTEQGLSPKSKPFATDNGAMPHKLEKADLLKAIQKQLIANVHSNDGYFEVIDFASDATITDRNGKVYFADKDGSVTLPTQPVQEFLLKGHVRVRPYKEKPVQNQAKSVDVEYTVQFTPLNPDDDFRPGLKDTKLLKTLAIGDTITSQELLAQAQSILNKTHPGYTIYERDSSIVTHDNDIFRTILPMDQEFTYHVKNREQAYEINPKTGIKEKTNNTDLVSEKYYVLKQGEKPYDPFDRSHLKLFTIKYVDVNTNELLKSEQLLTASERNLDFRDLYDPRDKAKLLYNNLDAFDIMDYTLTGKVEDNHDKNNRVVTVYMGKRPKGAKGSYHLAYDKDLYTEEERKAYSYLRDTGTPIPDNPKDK

Streptococcus = experiment: GAS UMAA2166 growth inhibition – luminescence, BacTiterGlo, counter-screen for streptokinase expression inhibitor project, dose response (AID 1915); assay type: functional, organism-based;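 note: potency for reduction of bacterial viability or growth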
[2] = molecular target: T2, Corticotropin-releasing factor receptor 2/Corticotropin-releasing factor-binding protein (Homo sapiens, UniProt P24387+Q13324); experiment: Dose Response confirmation of uHTS hits for small molecule antagonists of the CRF-binding protein and CRF-R2 receptor complex.; assay type: functional; conditions: read-out: IC50_Mean
T2 sequence (Q13324 whole entry): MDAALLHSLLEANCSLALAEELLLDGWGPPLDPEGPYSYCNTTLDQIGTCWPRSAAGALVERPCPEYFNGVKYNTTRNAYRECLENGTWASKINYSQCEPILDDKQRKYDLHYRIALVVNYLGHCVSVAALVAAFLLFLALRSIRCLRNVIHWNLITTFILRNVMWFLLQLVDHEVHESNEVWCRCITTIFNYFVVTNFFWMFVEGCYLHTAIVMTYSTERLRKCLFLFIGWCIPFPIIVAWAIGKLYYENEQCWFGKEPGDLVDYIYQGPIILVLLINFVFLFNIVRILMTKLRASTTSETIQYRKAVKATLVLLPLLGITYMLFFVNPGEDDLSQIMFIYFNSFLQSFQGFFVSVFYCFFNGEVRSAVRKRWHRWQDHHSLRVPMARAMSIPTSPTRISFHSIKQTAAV
T2 sequence (P24387 whole entry): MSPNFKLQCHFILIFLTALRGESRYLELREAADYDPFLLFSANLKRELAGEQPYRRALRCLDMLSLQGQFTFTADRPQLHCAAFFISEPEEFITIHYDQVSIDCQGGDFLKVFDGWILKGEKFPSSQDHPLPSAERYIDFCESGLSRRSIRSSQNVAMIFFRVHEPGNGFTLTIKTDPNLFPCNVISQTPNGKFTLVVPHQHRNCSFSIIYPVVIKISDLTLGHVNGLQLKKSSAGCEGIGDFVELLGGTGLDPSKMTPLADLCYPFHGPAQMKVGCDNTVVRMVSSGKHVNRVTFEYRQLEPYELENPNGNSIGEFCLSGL

[3] = molecular target: T2, Corticotropin-releasing factor receptor 2/Corticotropin-releasing factor-binding protein; experiment: activators of CRF receptor 2 with binding protein – uHTS hits, confirmation (AID 602473); assay type: functional; conditions: read-out: EC50_Mean
Cytochrome P450 1A2 = molecular target: T3, Cytochrome P450 1A2 (Homo sapiens, UniProt P05177);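 note: PubChem cytochrome P450 panel assay, CYP1A2 panel member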
T3 sequence (P05177 whole entry): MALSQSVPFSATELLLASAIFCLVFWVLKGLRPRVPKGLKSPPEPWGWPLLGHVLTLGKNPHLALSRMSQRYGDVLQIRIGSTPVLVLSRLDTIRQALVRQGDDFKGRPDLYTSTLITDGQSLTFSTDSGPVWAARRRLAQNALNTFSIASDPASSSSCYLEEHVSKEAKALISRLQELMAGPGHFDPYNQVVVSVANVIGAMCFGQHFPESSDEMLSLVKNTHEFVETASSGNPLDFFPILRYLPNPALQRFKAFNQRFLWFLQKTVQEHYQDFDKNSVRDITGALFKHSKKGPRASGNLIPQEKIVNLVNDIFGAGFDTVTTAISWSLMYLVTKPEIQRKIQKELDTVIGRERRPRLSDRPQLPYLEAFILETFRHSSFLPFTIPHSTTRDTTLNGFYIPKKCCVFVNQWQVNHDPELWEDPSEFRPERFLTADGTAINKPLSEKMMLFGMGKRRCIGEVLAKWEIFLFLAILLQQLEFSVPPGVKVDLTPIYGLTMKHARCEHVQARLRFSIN

[4] = molecular target: Luciferin 4-monooxygenase (Photinus pyralis, UniProt P08659); experiment: inhibition of purified Photinus pyralis luciferase – biochemical, luminescence, dose response (AID 1891)
Luciferin 4-monooxygenase, sequence (P08659 whole entry): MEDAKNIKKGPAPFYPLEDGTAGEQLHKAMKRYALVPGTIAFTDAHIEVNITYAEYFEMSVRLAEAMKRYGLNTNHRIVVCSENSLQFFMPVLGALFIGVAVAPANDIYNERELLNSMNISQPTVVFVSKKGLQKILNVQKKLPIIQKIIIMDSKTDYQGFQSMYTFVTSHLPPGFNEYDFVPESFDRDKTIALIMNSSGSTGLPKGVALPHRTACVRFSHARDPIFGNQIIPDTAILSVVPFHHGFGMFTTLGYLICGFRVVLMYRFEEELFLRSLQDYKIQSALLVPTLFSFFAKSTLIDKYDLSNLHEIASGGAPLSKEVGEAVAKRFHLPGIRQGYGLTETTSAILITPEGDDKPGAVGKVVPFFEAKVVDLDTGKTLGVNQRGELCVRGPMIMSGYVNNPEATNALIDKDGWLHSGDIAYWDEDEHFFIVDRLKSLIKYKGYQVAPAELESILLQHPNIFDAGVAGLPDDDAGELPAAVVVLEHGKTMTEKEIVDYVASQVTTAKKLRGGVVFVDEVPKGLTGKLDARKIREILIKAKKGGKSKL

[5] = Luminescence Cell-Based Dose Confirmation HTS to Identify Inhibitors of Platelet Dense Granule Release. [Related pubchem assays: 1663 (Primary HTS), 1678 (Summary of Project)]; assay type: functional
[6] = Trypanosoma cruzi growth suppression in host cells – NIH3T3 host cells, beta-gal luminescence, confirmation (AID 2044); assay type: functional, cell-based;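 note: intracellular parasites grown in NIH/3T3 mouse fibroblasts as host cells; luminescent beta-galactosidase reporter signal from transgenic T. cruzi replicating inside host cells; inhibitors lower the luminescence signal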
[7] = NIH3T3 cell viability loss – ATP luminescence, mouse fibroblasts, counter-screen, dose response (AID 2010); assay type: functional, cell-based;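 note: cells exposed to compound for about 90 hours before reading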
Cytochrome P450 2C19 = Cytochrome P450 2C19 (Homo sapiens, UniProt P33261); experiment: Cytochrome panel assay with activity outcomes. Panel member name: p450-cyp2c19 Compounds with AC50 equal or less than 10 uM are considered active; assay type: functional; conditions: read-out: AC50
Cytochrome P450 2C19, sequence (P33261 whole entry): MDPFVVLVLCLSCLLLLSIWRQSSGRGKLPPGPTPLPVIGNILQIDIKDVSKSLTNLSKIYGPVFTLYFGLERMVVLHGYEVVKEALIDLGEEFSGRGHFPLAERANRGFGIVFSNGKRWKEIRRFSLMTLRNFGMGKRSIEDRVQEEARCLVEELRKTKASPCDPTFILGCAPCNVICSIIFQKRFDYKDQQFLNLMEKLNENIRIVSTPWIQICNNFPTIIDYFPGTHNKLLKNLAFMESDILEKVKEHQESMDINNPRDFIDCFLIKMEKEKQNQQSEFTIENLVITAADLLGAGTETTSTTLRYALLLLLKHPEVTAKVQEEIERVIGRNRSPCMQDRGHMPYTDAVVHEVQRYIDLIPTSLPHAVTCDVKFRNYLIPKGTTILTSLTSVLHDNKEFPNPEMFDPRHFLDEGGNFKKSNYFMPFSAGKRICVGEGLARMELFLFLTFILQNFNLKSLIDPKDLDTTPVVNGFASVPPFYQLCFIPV

Cytochrome P450 2D6 = Cytochrome P450 2D6 (Homo sapiens, UniProt P10635);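 note: CYP2D6 member of a cytochrome P450 panel assay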
Cytochrome P450 2D6, sequence (P10635 whole entry): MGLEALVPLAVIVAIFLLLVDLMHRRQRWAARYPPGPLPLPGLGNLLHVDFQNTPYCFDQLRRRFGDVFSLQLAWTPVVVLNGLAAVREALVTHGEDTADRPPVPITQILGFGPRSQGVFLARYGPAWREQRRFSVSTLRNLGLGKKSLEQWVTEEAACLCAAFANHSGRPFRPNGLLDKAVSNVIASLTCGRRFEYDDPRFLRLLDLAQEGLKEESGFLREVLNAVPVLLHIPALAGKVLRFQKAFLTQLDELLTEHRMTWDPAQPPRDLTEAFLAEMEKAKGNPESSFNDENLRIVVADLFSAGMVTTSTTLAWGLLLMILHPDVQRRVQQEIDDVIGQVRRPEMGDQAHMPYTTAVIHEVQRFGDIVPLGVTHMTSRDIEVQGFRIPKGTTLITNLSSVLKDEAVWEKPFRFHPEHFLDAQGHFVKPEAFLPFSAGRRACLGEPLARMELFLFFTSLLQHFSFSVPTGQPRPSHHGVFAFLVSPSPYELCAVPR

Cytochrome P450 2C9 = Cytochrome P450 2C9 (Homo sapiens, UniProt P11712)
Cytochrome P450 2C9, sequence (P11712 whole entry): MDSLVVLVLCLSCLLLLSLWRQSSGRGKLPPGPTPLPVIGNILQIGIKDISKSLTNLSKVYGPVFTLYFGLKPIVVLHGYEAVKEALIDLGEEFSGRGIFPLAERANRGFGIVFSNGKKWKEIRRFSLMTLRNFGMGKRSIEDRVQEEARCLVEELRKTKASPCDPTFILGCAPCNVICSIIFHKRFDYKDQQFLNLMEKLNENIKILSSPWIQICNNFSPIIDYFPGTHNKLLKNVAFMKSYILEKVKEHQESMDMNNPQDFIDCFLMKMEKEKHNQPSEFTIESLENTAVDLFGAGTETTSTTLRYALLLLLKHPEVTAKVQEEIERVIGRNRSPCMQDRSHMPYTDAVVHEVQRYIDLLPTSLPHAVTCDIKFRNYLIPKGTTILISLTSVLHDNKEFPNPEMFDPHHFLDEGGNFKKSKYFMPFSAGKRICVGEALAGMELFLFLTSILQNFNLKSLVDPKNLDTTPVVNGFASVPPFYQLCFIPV

Which EC50 [1] does the source give for O=C(O)c1ccc(N2CCCCS2(=O)=O)cc1 here?
The EC50 was > 150 µM (not active).

And the EC50 (Streptokinase A)?
The EC50 was > 150 µM (not active).

And the EC50 (Streptococcus)?
Its EC50 is > 150 µM (not active).

With NC(=O)c1ccc(C2SCC(=O)N2Cc2ccccc2)cc1 (configuration not stated) as the compound, how does the IC50 [2] read?
The IC50 was > 47.1 µM (inactive).

And the EC50 [3]?
Its EC50 is > 53 µM (inactive).

With N#CCCn1c(=O)c(-c2ccc(F)cc2)nc2cnc(N3CCOCC3)nc21 as the compound, how does the AC50 (Cytochrome P450 1A2) read?
Its AC50 is 20 µM (inconclusive).

What does the source list for CC1=CC(C)(C)n2c(O)c(N=N)c3c(C)c(C)cc1c32?
EC50 [1]: 8.93 µM (active); EC50 (Streptokinase A): 16.3 µM (active); EC50 (Streptococcus): > 150 µM (not active)

Which EC50 [1] does the source give for Clc1cccc(Cl)c1C1Nc2cccc3cccc(c23)N1 here?
The EC50 was 5.07 µM (active).

What about the EC50 (Streptokinase A) of the same compound?
The EC50 was > 50 µM (not active).

And the EC50 (Streptococcus)?
Its EC50 is 19.1 µM (active).

For Cc1ccc(C(=O)NC2CCCC2)s1, which EC50 [1] is on record?
Its EC50 is > 150 µM (not active).

What about the EC50 (Streptokinase A) of the same compound?
The EC50 was > 150 µM (not active).

What about the EC50 (Streptococcus) of the same compound?
The EC50 was > 150 µM (not active).

Which EC50 [4] does the source give for CCOc1cc(CNCCN2CCOCC2)ccc1OCc1ccccc1Cl here?
Its EC50 is > 112 µM (not active).

What about the EC50 [5] of the same compound?
The EC50 was > 112 µM (not active).

And the EC50 [6]?
Its EC50 is 125 nM (active).

And the EC50 [7]?
Its EC50 is 21.1 µM (active).

For Cc1ccc(CNC(=O)CCNC(=O)Cn2ccc3ccccc3c2=O)cc1, which IC50 [2] is on record?
Its IC50 is > 47.1 µM (inactive).

And the EC50 [3]?
Its EC50 is > 53 µM (inactive).

With Cc1ccc(Nc2ncccc2C(=O)NCc2cccs2)c(C)c1 as the compound, how does the AC50 (Cytochrome P450 2C19) read?
Its AC50 is 7.08 µM (inconclusive).

And the AC50 (Cytochrome P450 2D6)?
Its AC50 is 25.1 µM (inconclusive).

Which results are given for CC1CCN(c2nc(N3CCCCC3)nc(N3CCCCC3)n2)CC1?
EC50 [1]: 13.7 µM (active); EC50 (Streptokinase A): 33.2 µM (active); EC50 (Streptococcus): > 150 µM (not active)

Which EC50 [4] does the source give for Cn1cc(S(=O)(=O)N2CCc3ccccc32)cc1C(=O)Nc1ccc(Cl)cc1 here?
Its EC50 is > 112 µM (not active).

And the EC50 [5]?
The EC50 was > 112 µM (not active).

For O=C(Nc1cc(Br)ccc1O)c1cc(-c2ccc3c(c2)OCO3)on1, which IC50 [2] is on record?
The IC50 was > 47.1 µM (inactive).

And the EC50 [3]?
Its EC50 is > 53 µM (inactive).

For COc1ccc(-c2nc3cnc(N(C)C)nc3n(CCc3ccccc3)c2=O)cc1, which AC50 (Cytochrome P450 1A2) is on record?
The AC50 was 1.26 µM (inconclusive).

With CS(=O)(=O)N1CCC2(CC1)CN(Cc1nccs1)C2 as the compound, how does the AC50 (Cytochrome P450 1A2) read?
Its AC50 is 6.31 µM (inconclusive).

Which AC50 (Cytochrome P450 2C19) does the source give for CC(=O)COc1ccc2c(C)c(C)c(=O)oc2c1 here?
The AC50 was 0.178 µM (inconclusive).

With O=C(O)c1cc2cc(Cl)ccc2oc1=O as the compound, how does the AC50 (Cytochrome P450 1A2) read?
The AC50 was 0.0251 µM (inconclusive).

What about the AC50 (Cytochrome P450 2C9) of the same compound?
Its AC50 is 5.62 nM (inconclusive).

Which EC50 [1] does the source give for c1csc(-c2csc3nc(CN4CCOCC4)nc(NCc4ccc5c(c4)OCO5)c23)c1 here?
Its EC50 is 12.3 µM (active).

What about the EC50 (Streptokinase A) of the same compound?
The EC50 was 59.9 µM (active).

And the EC50 [6]?
Its EC50 is 1310 nM (active).

What about the EC50 [7] of the same compound?
The EC50 was > 60 µM (not active).

What about the EC50 (Streptococcus) of the same compound?
Its EC50 is > 150 µM (not active).

For CCCN(CC(=O)Nc1ccccc1OC)C(=O)c1ccncc1, which EC50 [1] is on record?
The EC50 was > 150 µM (not active).

What about the EC50 (Streptokinase A) of the same compound?
The EC50 was > 150 µM (not active).

And the EC50 (Streptococcus)?
Its EC50 is > 150 µM (not active).

Which EC50 [4] does the source give for Cn1c(=O)oc2cc(S(=O)(=O)N3CCN(c4ccc(F)cc4)CC3)ccc21 here?
Its EC50 is > 112 µM (not active).

What about the EC50 [5] of the same compound?
Its EC50 is > 112 µM (not active).

With CCC(=O)Nc1nc2ccccc2n1Cc1ccccc1C as the compound, how does the EC50 [1] read?
Its EC50 is 2.29 µM (active).

And the EC50 (Streptokinase A)?
Its EC50 is > 150 µM (not active).

And the EC50 (Streptococcus)?
The EC50 was > 150 µM (not active).

Which EC50 [4] does the source give for O=C(CN1C(=O)CCC1=O)Nc1nc(-c2cccs2)cs1 here?
Its EC50 is > 112 µM (not active).

And the EC50 [5]?
The EC50 was > 112 µM (not active).

Which IC50 [2] does the source give for CC(C(=O)NCCN1CCOCC1)(c1ccccc1)c1ccccc1 here?
Its IC50 is > 47.1 µM (inactive).

What about the EC50 [3] of the same compound?
Its EC50 is > 53 µM (inactive).

Source: ChEMBL document CHEMBL1201862, “PubChem BioAssay data set” (2004)
